Publication PMC3692398 (Biochemical pharmacology, 2013)
Where two headings read alike, the source gives them in different places.

Tests used:
hSERT [1] = biological target: T1, hSERT (Homo sapiens, UniProt P31645); test: Superfusion release of preloaded [3H]5-HT from HEK-hSERT cells; type: cell-based; conditions: for releasing efficacy, hSERT [3H]5-HT: concentrations ranging from 1 nM to 100 µM; for EC50: read-out: Drug-induced release of [3H]neurotransmitter EC50 ± sem, hSERT [3H]5-HT, superfusion, AUC
h5-HT2A receptor [2] = biological target: T2, h5-HT2A receptor (Homo sapiens, UniProt P28223); test: Inhibition of 5-HT-stimulated IP-1 formation; type: cell-based; conditions: 100 nM 5-HT; for h5-HT2A Inhibition of 5-HT-stimulated IP-1 formation % maximum inhibition ± sem: normalized to maximal inhibition by ketanserin (10 µM); for IC50: read-out: h5-HT2A Inhibition of 5-HT-stimulated IP-1 formation IC50 ± sem
hVMAT2 [3] = biological target: T3, hVMAT2 (Homo sapiens, UniProt Q05940); test: Inhibition of [3H]DHTB binding, HEK-hVMAT2 membranes; conditions: read-out: Inhibition of [3H]DHTB binding Ki ± sem, hVMAT2
hNET [4] = biological target: T4, hNET (Homo sapiens, UniProt P23975); test: cell-based; type: cell-based; conditions: for IC50: read-out: Inhibition of [3H]neurotransmitter uptake IC50 ± sem, hNET [3H]NE
h5-HT1A receptor [5] = biological target: T5, h5-HT1A receptor (Homo sapiens, UniProt P08908); test: [3H]8-OH-DPAT binding, HEK-h5-HT1A; conditions: read-out: Inhibition of radioligand binding Ki ± sem, h5-HT1A [3H]8OH-DPAT
T5 sequence (P08908 1-422): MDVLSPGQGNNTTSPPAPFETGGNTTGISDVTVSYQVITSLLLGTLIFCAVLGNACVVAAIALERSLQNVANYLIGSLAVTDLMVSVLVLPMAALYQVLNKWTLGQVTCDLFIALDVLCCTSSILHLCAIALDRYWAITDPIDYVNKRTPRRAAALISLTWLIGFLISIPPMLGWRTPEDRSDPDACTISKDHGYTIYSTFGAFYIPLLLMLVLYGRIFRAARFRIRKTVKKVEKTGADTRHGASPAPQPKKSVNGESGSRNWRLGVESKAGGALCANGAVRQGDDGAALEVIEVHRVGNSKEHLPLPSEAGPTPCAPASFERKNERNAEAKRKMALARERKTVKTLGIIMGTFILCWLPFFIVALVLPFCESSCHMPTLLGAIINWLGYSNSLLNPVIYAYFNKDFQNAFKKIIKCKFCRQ

h5-HT2C receptor [6] = biological target: T6, h5-HT2C receptor (Homo sapiens, UniProt P28335); test: Inhibition of 5-HT-stimulated IP-1 formation; type: cell-based; conditions: 100 nM 5-HT; normalized to maximal inhibition by SB242084 (1 µM)
T6 sequence (P28335 33-458): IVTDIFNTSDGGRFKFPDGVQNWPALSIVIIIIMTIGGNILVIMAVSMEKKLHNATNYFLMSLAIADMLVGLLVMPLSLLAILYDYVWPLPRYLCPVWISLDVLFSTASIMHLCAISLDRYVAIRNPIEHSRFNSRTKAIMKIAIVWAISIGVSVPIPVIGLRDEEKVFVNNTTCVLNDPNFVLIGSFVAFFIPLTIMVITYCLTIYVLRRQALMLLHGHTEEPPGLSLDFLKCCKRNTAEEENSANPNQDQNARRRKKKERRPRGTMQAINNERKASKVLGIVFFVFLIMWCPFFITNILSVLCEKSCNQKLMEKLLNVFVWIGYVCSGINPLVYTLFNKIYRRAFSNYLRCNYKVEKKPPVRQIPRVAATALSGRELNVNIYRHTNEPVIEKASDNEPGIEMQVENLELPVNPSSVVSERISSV

h5-HT1A receptor [7] = biological target: T5, h5-HT1A receptor; test: Stimulation of [35S]GTPγS binding, HEK-h5-HT1A membranes; type: biochemical; conditions: for h5-HT1A Stimulation of [35S]GTPγS binding % maximum stimulation ± sem: normalized to the maximal stimulation by 5-HT; for EC50: read-out: h5-HT1A Stimulation of [35S]GTPγS binding EC50 ± sem
hVMAT2 [8] = biological target: T3, hVMAT2; test: Superfusion release of preloaded [3H]NE from HEK-hVMAT2 cells; type: cell-based; conditions: for EC50: read-out: Drug-induced release of [3H]NE EC50 ± sem, hVMAT2, superfusion
h5-HT2A receptor [9] = biological target: T2, h5-HT2A receptor; test: [125I]DOI binding, HEK-h5-HT2A; conditions: read-out: Inhibition of radioligand binding Ki ± sem, h5-HT2A [125I]DOI
hVMAT2 [10] = biological target: T3, hVMAT2; test: Inhibition of [3H]5-HT uptake, HEK-hVMAT2 membrane preparation; type: biochemical; conditions: read-out: Inhibition of [3H]5-HT uptake IC50 ± sem, hVMAT2; 40 nM [3H]5-HT, 2 mM MgATP
hDAT [11] = biological target: T7, hDAT (Homo sapiens, UniProt Q01959); test: Inhibition of [3H]DA uptake, intact HEK-hDAT cells; type: cell-based; conditions: for ratio of binding Ki to uptake IC50, hDAT: [125I]RTI-55 Ki / [3H]DA uptake IC50; for fold less potent at other target proteins than at biogenic amine transporters: other target proteins vs biogenic amine transporters; for IC50: read-out: Inhibition of [3H]neurotransmitter uptake IC50 ± sem, hDAT [3H]DA, 20 nM [3H]DA, intact cells
hSERT [12] = biological target: T1, hSERT; test: Inhibition of [3H]5-HT uptake, intact HEK-hSERT cells; type: cell-based; conditions: for ratio of binding Ki to uptake IC50, hSERT: [125I]RTI-55 Ki / [3H]5-HT uptake IC50; for IC50: read-out: Inhibition of [3H]neurotransmitter uptake IC50 ± sem, hSERT [3H]5-HT, 20 nM [3H]5-HT, intact cells
hNET [13] = biological target: T4, hNET; test: biochemical; type: binding; conditions: read-out: Inhibition of [125I]RTI-55 binding Ki ± sem, hNET
hDAT [14] = biological target: T7, hDAT; test: Inhibition of [125I]RTI-55 binding, HEK-hDAT membranes; conditions: read-out: Inhibition of [125I]RTI-55 binding Ki ± sem, hDAT; HEK-hDAT membranes
hDAT [15] = biological target: T7, hDAT; test: Superfusion release of preloaded [3H]DA from HEK-hDAT cells; type: cell-based; conditions: for releasing efficacy, hDAT [3H]DA: concentrations ranging from 1 nM to 100 µM; for EC50: read-out: Drug-induced release of [3H]neurotransmitter EC50 ± sem, hDAT [3H]DA, superfusion, AUC
hNET [16] = biological target: T4, hNET; test: Superfusion release of preloaded [3H]NE from HEK-hNET cells; type: cell-based; conditions: for releasing efficacy, hNET [3H]NE: concentrations ranging from 10 nM to 100 µM; for EC50: read-out: Drug-induced release of [3H]neurotransmitter EC50 ± sem, hNET [3H]NE, superfusion, AUC; for % maximum release ± sem, hNET [3H]NE: relative to maximal AUC induced by METH (0.3 or 1 µM)
h5-HT2C receptor [17] = biological target: T6, h5-HT2C receptor; test: biochemical; type: binding; conditions: read-out: Inhibition of radioligand binding Ki ± sem, h5-HT2C [125I]DOI
hSigma1 receptor = hSigma1 receptor (Homo sapiens, UniProt Q99720); test: [3H]; type: binding
human DA D1 receptor = human DA D1 receptor (Homo sapiens, UniProt P21728); test: [3H]SCH23390 binding, LhD1 cells; conditions: test drugs up to the maximal concentration tested (10 µM)
[18] = blood from heart, periphery, and femoral veins; postmortem cases; ref [32];[33];[34]; cited from earlier work
[19] = read-out: Inhibition of [3H]pentazocine binding Ki ± sem, hSigma1

T1 sequence (P31645 whole entry, the tested form may be a part): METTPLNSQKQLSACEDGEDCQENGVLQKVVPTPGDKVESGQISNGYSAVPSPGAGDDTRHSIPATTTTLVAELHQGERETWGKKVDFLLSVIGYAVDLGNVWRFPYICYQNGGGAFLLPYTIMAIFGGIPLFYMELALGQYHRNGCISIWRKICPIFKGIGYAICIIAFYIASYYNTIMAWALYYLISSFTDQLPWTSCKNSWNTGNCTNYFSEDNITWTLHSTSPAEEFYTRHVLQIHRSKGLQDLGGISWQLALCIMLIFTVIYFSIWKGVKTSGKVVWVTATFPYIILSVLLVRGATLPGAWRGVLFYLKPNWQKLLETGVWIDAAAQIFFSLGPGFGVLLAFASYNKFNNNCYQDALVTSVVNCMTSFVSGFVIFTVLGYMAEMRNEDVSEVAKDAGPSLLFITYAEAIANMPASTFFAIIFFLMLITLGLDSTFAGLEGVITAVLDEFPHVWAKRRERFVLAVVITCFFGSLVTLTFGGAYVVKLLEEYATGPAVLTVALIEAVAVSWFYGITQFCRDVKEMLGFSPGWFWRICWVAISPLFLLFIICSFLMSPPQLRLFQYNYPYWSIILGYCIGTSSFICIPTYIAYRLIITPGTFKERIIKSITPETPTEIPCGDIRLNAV
T7 sequence (Q01959 whole entry): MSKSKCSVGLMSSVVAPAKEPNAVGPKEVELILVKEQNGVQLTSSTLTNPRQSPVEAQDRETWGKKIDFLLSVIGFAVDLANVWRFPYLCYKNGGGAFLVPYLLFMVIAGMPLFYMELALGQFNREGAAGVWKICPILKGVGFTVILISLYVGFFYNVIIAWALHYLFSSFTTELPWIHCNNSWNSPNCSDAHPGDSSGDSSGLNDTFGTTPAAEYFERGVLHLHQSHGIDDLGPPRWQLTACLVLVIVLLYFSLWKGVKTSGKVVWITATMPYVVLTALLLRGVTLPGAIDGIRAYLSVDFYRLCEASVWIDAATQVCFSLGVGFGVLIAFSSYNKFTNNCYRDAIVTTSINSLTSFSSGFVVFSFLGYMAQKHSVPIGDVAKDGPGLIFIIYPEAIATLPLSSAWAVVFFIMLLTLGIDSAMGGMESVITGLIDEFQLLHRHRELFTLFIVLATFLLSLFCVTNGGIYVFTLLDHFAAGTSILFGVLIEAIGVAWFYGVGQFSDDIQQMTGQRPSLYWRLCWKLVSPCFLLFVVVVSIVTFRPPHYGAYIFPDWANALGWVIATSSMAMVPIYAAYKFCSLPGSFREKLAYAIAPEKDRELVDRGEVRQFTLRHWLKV
T4 sequence (P23975 whole entry): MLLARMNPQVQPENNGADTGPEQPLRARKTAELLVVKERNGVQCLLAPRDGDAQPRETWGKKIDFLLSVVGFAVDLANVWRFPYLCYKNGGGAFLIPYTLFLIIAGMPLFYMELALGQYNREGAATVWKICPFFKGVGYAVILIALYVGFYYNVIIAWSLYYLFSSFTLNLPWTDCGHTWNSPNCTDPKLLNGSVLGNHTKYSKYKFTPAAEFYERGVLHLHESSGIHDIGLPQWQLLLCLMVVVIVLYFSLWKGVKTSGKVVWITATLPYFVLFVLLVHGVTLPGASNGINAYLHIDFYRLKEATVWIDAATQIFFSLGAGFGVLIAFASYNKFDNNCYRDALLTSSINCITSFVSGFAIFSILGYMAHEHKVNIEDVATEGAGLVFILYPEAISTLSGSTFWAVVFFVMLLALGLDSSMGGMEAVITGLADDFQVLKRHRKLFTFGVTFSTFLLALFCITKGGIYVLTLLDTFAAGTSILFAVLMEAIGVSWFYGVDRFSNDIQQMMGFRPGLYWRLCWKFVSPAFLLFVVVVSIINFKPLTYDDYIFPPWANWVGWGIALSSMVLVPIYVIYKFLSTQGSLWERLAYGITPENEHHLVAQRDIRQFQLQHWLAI
T3 sequence (Q05940 whole entry): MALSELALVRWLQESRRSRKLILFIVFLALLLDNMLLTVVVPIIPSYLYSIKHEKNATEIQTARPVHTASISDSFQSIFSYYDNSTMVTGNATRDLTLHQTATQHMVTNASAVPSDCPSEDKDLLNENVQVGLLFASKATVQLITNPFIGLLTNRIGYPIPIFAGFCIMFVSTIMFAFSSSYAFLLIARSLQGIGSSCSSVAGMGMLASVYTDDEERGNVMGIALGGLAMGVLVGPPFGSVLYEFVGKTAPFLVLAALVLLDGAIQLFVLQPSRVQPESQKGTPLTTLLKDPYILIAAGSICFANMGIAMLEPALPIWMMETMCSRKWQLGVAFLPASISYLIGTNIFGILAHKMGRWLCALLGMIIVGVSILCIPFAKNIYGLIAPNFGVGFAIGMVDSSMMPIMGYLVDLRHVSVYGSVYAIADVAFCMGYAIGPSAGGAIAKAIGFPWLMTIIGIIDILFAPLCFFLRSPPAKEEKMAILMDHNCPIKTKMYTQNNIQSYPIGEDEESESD
Sequence of hSigma1 receptor (Q99720 whole entry): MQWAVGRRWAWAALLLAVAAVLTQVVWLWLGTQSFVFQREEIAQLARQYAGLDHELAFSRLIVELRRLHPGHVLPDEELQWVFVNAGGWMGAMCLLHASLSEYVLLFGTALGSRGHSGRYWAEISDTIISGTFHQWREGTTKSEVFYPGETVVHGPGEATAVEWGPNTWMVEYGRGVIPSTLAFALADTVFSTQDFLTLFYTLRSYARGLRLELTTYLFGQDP
T2 sequence (P28223 whole entry): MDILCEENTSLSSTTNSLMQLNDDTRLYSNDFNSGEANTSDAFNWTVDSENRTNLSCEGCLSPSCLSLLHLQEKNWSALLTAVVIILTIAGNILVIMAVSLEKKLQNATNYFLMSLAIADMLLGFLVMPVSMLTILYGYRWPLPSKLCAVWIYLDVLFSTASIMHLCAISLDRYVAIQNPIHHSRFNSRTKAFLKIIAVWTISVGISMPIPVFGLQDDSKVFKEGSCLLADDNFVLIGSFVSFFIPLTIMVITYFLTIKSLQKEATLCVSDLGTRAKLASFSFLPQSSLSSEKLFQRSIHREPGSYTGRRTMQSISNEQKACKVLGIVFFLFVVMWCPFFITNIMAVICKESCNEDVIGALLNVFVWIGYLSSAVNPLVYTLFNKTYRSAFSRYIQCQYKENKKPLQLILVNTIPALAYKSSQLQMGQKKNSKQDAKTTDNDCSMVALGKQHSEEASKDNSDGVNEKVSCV
Sequence of human DA D1 receptor (P21728 whole entry): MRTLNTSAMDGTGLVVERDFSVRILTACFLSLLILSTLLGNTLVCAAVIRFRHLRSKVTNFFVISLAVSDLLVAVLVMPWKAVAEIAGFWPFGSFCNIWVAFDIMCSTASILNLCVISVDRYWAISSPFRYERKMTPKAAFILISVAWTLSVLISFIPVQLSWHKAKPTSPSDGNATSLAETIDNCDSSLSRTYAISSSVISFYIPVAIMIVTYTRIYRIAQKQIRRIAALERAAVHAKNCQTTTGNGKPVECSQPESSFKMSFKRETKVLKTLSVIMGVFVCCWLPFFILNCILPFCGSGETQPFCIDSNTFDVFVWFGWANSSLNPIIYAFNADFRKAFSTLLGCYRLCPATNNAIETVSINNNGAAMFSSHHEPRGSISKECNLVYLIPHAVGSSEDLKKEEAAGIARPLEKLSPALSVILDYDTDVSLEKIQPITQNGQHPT

| Structure (SMILES) | releasing efficacy, hSERT [3H]5-HT (hSERT [1]) | EC50 (hSERT [1]) [µM] | h5-HT2A Inhibition of 5-HT-stimulated IP-1 formation % maximum inhibition ± sem (h5-HT2A receptor [2]) [%] | IC50 (h5-HT2A receptor [2]) [µM] | Ki (hVMAT2 [3]) [µM] | Ki (h5-HT1A receptor [5]) [µM] | h5-HT2C Inhibition of 5-HT-stimulated IP-1 formation % maximum inhibition ± sem (h5-HT2C receptor [6]) [%] | h5-HT1A Stimulation of [35S]GTPγS binding % maximum stimulation ± sem (h5-HT1A receptor [7]) [%] | EC50 (h5-HT1A receptor [7]) [µM] | EC50 (hVMAT2 [8]) [µM] | Ki (h5-HT2A receptor [9]) [µM] | IC50 (hVMAT2 [10]) [µM] | ratio of binding Ki to uptake IC50, hDAT (hDAT [11]) | fold less potent at other target proteins than at biogenic amine transporters (hDAT [11]) | IC50 (hDAT [11]) [µM] | ratio of binding Ki to uptake IC50, hSERT (hSERT [12]) | IC50 (hSERT [12]) [µM] | Ki (hDAT [14]) [µM] | releasing efficacy, hDAT [3H]DA (hDAT [15]) | EC50 (hDAT [15]) [µM] | further results |
| --- | --- | --- | --- | --- | --- | --- | --- | --- | --- | --- | --- | --- | --- | --- | --- | --- | --- | --- | --- | --- | --- |
| CCCC(C(=O)c1ccc2ccccc2c1)N1CCCC1 (stereo not drawn) [Naphyrone, naphthylpyrovalerone] | minimal releasing efficacy | 7.5 ± 3 | 98.18 ± 0.94 | 65 ± 11 | 119 ± 20 | 4.64 ± 0.6 | 32 ± 14 | 80 ± 15 | 116 ± 30 | > 100 | 17.7 ± 2.6 | 21.4 ± 7.1 | less than six | 60–350 fold | 0.0126 ± 0.0031 | less than six | 0.0593 ± 0.0097 | 0.0108 ± 0.00076 | minimal releasing efficacy | > 100 | % maximum release ± sem, hSERT [3H]5-HT (hSERT [1]): 20.1 ± 9.3%; ratio of binding Ki to uptake IC50, hNET (hNET [4]): less than six; IC50 (hNET [4]): 0.035 µM; Release of [3H]NE % maximum release ± sem or range, hVMAT2 (hVMAT2 [8]; relative to maximal AUC induced by METH (100 µM or 1 mM)): 34 ± 14%; Release of [3H]NE % maximum release ± sem or range, hVMAT2 (hVMAT2 [8]; relative to maximal AUC induced by METH (100 µM or 1 mM), listed as naphyrone): less than 35%; Ki (hNET [13]): 0.059 µM; % maximum release ± sem, hDAT [3H]DA (hDAT [15]; relative to maximal AUC induced by METH (1 or 10 µM)): < 6%; releasing efficacy, hNET [3H]NE (hNET [16]): minimal releasing efficacy; EC50 (hNET [16]): > 100 µM; % maximum release ± sem, hNET [3H]NE (hNET [16]): 36 ± 18%; Ki (h5-HT2C receptor [17]): 23.2 µM; Ki (hSigma1 receptor; [19]): 0.509 ± 0.052 µM |
| O=C(CCCN1CCC2(CC1)C(=O)NCN2c1ccccc1)c1ccc(F)cc1 [Spiperone, reference compound] |  |  |  |  |  |  |  |  |  |  |  |  |  |  |  |  |  |  |  |  | Ki (hSigma1 receptor; Inhibition of [3H]pentazocine binding Ki ± sem, hSigma1): 1.31 ± 0.24 µM |
| CN1CCc2cc(Cl)c(O)cc2[C@@H](c2ccccc2)C1 [SCH23390] |  |  |  |  |  |  |  |  |  |  |  |  |  |  |  |  |  |  |  |  | affinity for the [3H]SCH23390 binding site, DA D1 receptor (human DA D1 receptor): high affinity |
| CCCC(C(=O)c1ccc2c(c1)OCO2)N1CCCC1 (stereo not drawn) [MDPV, 3,4-methylenedioxypyrovalerone] | minimal releasing efficacy | > 100 | 67.7 ± 5.4 | 270 ± 86 | 990 ± 270 | 14.8 ± 3.8 | 24.5 ± 8.4 | 69.0 ± 6.7 | 60.8 ± 8.4 | 148 ± 84 | 207 ± 29 | > 100 | less than six | 60–350 fold | 0.0126 ± 0.0024 | less than six | 1.38 | 0.0194 ± 0.0032 | minimal releasing efficacy | > 100 | % maximum release ± sem, hSERT [3H]5-HT (hSERT [1]; relative to maximal AUC induced by PCA (10 µM)): 6.9 ± 2.1%; ratio of binding Ki to uptake IC50, hNET (hNET [4]; [125I]RTI-55 Ki / [3H]NE uptake IC50): less than six; IC50 (hNET [4]; 20 nM [3H]NE, intact cells): 0.0188 ± 0.0021 µM; postmortem blood concentration [18]: 0.06 to 3.3 mg/L; postmortem blood concentration (molar) [18]: 0.25 to 14 µM; Release of [3H]NE % maximum release ± sem or range, hVMAT2 (hVMAT2 [8]): 35.8 ± 9.6%; Ki (hNET [13]; HEK-hNET membranes): 0.107 ± 0.034 µM; % maximum release ± sem, hDAT [3H]DA (hDAT [15]): 4.8 ± 5.3%; releasing efficacy, hNET [3H]NE (hNET [16]): minimal releasing efficacy; EC50 (hNET [16]): > 100 µM; % maximum release ± sem, hNET [3H]NE (hNET [16]): 18 ± 15%; Ki (h5-HT2C receptor [17]): 107 ± 30 µM; Ki (hSigma1 receptor; [19]): 4.4 ± 1.7 µM |
| CCC1(O)CC2c3cc(OC)c(OC)cc3CCN2CC1CC(C)C [RO4-1284, (2R,2S,11bs)-2-ethyl-3-isobutyl-9,10-dimethoxy-2,2,4,6,7,11b-hexahydro-1H-pyrido[2,1-a]isoquinolin-2-ol, reference compound] |  |  |  |  | 0.15 ± 0.015 |  |  |  |  |  |  | 0.098 ± 0.032 |  |  |  |  |  |  |  |  |  |
